Assay: xn = mol fraction of the nth substance listed

CCCn1cc[n+](C)c1.O=S(=O)([N-]S(=O)(=O)C(F)(F)F)C(F)(F)F + O
100 kPa, x2 = 0.272
Conditions	viscosity [mPa·s]
308.15 K	18.83
318.15 K	13.95
323.15 K	12.19
343.15 K	7.64
353.15 K	6.25

CC[NH+](C)CC.O=S(=O)([O-])C(F)(F)F + O
101 kPa
Conditions	viscosity [mPa·s]
293.15 K, x2 = 0.759	7.65
313.15 K, x2 = 0.037	25.8
333.15 K, x2 = 0.434	7.33
333.15 K, x2 = 0.759	2.81
333.15 K, x2 = 0.844	1.94
353.15 K, x2 = 0.434	4.89
353.15 K, x2 = 0.759	2.01

CC[n+]1ccn(C)c1.N#C[N-]C#N + O
Conditions	electrical conductivity [S/m]	viscosity [mPa·s]
288.15 K, 100 kPa, x2 = 0	–	20
288.15 K, 100 kPa, x2 = 0.1016	–	17.49
288.15 K, 100 kPa, x2 = 0.2014	–	15.14
288.15 K, 100 kPa, x2 = 0.2999	–	13.02
288.15 K, 100 kPa, x2 = 0.4015	–	11.08
288.15 K, 100 kPa, x2 = 0.5106	–	9.24
288.15 K, 100 kPa, x2 = 0.5934	–	7.86
288.15 K, 100 kPa, x2 = 0.7465	–	5.45
288.15 K, 100 kPa, x2 = 0.7974	–	4.58
288.15 K, 100 kPa, x2 = 0.9004	–	2.76
288.15 K, 100 kPa, x2 = 0.9498	–	1.93
293.15 K, 100 kPa, x2 = 0	–	16.9
293.15 K, 100 kPa, x2 = 0.1016	–	14.89
293.15 K, 100 kPa, x2 = 0.2014	–	12.98
293.15 K, 100 kPa, x2 = 0.2999	–	11.23
293.15 K, 100 kPa, x2 = 0.4015	–	9.59
293.15 K, 100 kPa, x2 = 0.5106	–	8
293.15 K, 100 kPa, x2 = 0.5934	–	6.83
293.15 K, 100 kPa, x2 = 0.7465	–	4.74
293.15 K, 100 kPa, x2 = 0.7974	–	3.99
293.15 K, 100 kPa, x2 = 0.9004	–	2.41
293.15 K, 100 kPa, x2 = 0.9498	–	1.69
293.2 K, 101 kPa, x2 = 0.6	4.47	–
293.2 K, 101 kPa, x2 = 0.8	5.69	–
298.15 K, 100 kPa, x2 = 0	–	14.54
298.15 K, 100 kPa, x2 = 0.1016	–	12.86
298.15 K, 100 kPa, x2 = 0.2014	–	11.23
298.15 K, 100 kPa, x2 = 0.2999	–	9.77
298.15 K, 100 kPa, x2 = 0.4015	–	8.37
298.15 K, 100 kPa, x2 = 0.5106	–	7.01
298.15 K, 100 kPa, x2 = 0.5934	–	5.99
298.15 K, 100 kPa, x2 = 0.7465	–	4.16
298.15 K, 100 kPa, x2 = 0.7974	–	3.5
298.15 K, 100 kPa, x2 = 0.9004	–	2.13
298.15 K, 100 kPa, x2 = 0.9498	–	1.5
298.15 K, 101 kPa, x2 = 0	–	14.9
298.15 K, 101 kPa, x2 = 0.2248	–	11.24
298.15 K, 101 kPa, x2 = 0.3042	–	10.14
298.15 K, 101 kPa, x2 = 0.4308	–	8.39
298.15 K, 101 kPa, x2 = 0.7944	–	3.61
298.15 K, 101 kPa, x2 = 0.8803	–	2.46
303.15 K, 100 kPa, x2 = 0	–	12.63
303.15 K, 100 kPa, x2 = 0.1016	–	11.21
303.15 K, 100 kPa, x2 = 0.2014	–	9.84
303.15 K, 100 kPa, x2 = 0.2999	–	8.59
303.15 K, 100 kPa, x2 = 0.4015	–	7.38
303.15 K, 100 kPa, x2 = 0.5106	–	6.19
303.15 K, 100 kPa, x2 = 0.5934	–	5.29
303.15 K, 100 kPa, x2 = 0.7465	–	3.67
303.15 K, 100 kPa, x2 = 0.7974	–	3.09
303.15 K, 100 kPa, x2 = 0.9004	–	1.89
303.15 K, 100 kPa, x2 = 0.9498	–	1.34
308.15 K, 100 kPa, x2 = 0	–	11.05
308.15 K, 100 kPa, x2 = 0.1016	–	9.86
308.15 K, 100 kPa, x2 = 0.2014	–	8.69
308.15 K, 100 kPa, x2 = 0.2999	–	7.61
308.15 K, 100 kPa, x2 = 0.4015	–	6.55
308.15 K, 100 kPa, x2 = 0.5106	–	5.5
308.15 K, 100 kPa, x2 = 0.5934	–	4.71
308.15 K, 100 kPa, x2 = 0.7465	–	3.27
308.15 K, 100 kPa, x2 = 0.7974	–	2.76
308.15 K, 100 kPa, x2 = 0.9004	–	1.7
308.15 K, 100 kPa, x2 = 0.9498	–	1.2
308.2 K, 101 kPa, x2 = 0.2	3.89	–
308.2 K, 101 kPa, x2 = 0.6	6.36	–
313.15 K, 100 kPa, x2 = 0	–	9.76
313.15 K, 100 kPa, x2 = 0.1016	–	8.74
313.15 K, 100 kPa, x2 = 0.2014	–	7.73
313.15 K, 100 kPa, x2 = 0.2999	–	6.79
313.15 K, 100 kPa, x2 = 0.4015	–	5.86
313.15 K, 100 kPa, x2 = 0.5106	–	4.93
313.15 K, 100 kPa, x2 = 0.5934	–	4.23
313.15 K, 100 kPa, x2 = 0.7465	–	2.93
313.15 K, 100 kPa, x2 = 0.7974	–	2.48
313.15 K, 100 kPa, x2 = 0.9004	–	1.53
313.15 K, 100 kPa, x2 = 0.9498	–	1.09
313.15 K, 101 kPa, x2 = 0.2248	–	7.79
313.15 K, 101 kPa, x2 = 0.8803	–	1.73
313.15 K, 101 kPa, x2 = 0.953	–	1.08
313.2 K, 101 kPa, x2 = 0.2	4.32	–
313.2 K, 101 kPa, x2 = 0.8	8.83	–
318.15 K, 100 kPa, x2 = 0	–	8.69
318.15 K, 100 kPa, x2 = 0.1016	–	7.79
318.15 K, 100 kPa, x2 = 0.2014	–	6.92
318.15 K, 100 kPa, x2 = 0.2999	–	6.1
318.15 K, 100 kPa, x2 = 0.4015	–	5.27
318.15 K, 100 kPa, x2 = 0.5106	–	4.45
318.15 K, 100 kPa, x2 = 0.5934	–	3.81
318.15 K, 100 kPa, x2 = 0.7465	–	2.64
318.15 K, 100 kPa, x2 = 0.7974	–	2.24
318.15 K, 100 kPa, x2 = 0.9004	–	1.39
318.15 K, 100 kPa, x2 = 0.9498	–	0.99
318.2 K, 101 kPa, x2 = 0.2	4.77	–
328.15 K, 101 kPa, x2 = 0.7944	–	1.9
328.2 K, 101 kPa, x2 = 0.2	5.74	–
338.2 K, 101 kPa, x2 = 0.4	8.22	–
338.2 K, 101 kPa, x2 = 0.6	10.6	–
343.15 K, 101 kPa, x2 = 0	–	5.48

CC[NH+](C)CC.O=S(=O)([O-])C(F)(F)F + O + CC[NH+](C)CC.CS(=O)(=O)[O-]
viscosity [mPa·s], 101 kPa
Conditions	x2 = 0.027, x1 = 0.973	x2 = 0.05, x1 = 0.717	x2 = 0.07, x1 = 0.498	x2 = 0.089, x1 = 0.309	x2 = 0.107, x1 = 0.143	x2 = 0.114, x1 = 0.069
293.15 K	53.3	78.1	101.7	116.8	125.2	128.3
313.15 K	25.8	34	40.9	44.4	45.8	46.1
333.15 K	14.6	17.9	20.4	21.4	21.6	21.7
353.15 K	9.18	10.7	11.74	12.07	12.03	12.06

From the CheMixHub ionic liquid set
